Target: T1, human LTA4 hydrolase (Homo sapiens, UniProt P09960)
T1 sequence (P09960 1-611): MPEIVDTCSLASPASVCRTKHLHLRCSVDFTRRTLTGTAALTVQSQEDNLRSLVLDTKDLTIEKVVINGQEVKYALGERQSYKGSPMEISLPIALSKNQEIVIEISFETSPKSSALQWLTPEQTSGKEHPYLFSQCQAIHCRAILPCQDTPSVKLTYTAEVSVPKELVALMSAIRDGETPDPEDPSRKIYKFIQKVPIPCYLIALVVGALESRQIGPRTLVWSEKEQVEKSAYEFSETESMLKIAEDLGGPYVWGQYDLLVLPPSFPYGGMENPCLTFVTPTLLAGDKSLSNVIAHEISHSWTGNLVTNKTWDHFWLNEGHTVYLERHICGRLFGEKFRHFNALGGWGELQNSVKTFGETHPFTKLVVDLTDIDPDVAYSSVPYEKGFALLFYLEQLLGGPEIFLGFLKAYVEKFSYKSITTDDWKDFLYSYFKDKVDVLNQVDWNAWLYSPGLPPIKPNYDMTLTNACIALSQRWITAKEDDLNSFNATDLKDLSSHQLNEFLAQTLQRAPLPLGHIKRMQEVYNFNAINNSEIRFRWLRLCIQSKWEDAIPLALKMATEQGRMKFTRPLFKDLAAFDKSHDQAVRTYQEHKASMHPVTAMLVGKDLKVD
Assay: LTA4H Enzyme assay (cleavage of Arg-AMC, fluorescence)
Type: biochemical
Conditions: not given
Experimental: The compounds of the invention are assessed for the ability to interact with human LTA4 hydrolase in an enzymatic assay that measures the ability of the enzyme to cleave the peptide bond of arginyl-aminomethylcoumarin (Arg-AMC). LTA4H Enzyme (1 nM final), Arg-AMC substrate (50 μM final), and compound are combined in a reaction buffer (50 mM Tris-HCl (pH 7.5), 100 mM KCl, 0.5% bovine serum albumin) at room temperature for 1 h. The formation of product is assessed by measuring the fluorescence of aminomethylcoumarin product (excitation wavelength 380 nm/emission wavelength 460 nm).

For CN(C)CCN(C)Cc1ccc([C@H]2COc3ccccc3O2)cc1 [Example 79, N-{4-[(2S)-2,3-dihydro-1,4-benzodioxin-2-yl]benzyl}-N,N′,N′-trimethylethane-1,2-diamine], the IC50 was 510 pM.

Same assay, conditions: LTA4H Enzyme 1 nM, Arg-AMC substrate 50 μM, room temperature 1 h, fluorescence; read-out: IC50 values of LTA4H Enzyme assay

First: O[C@H]1CCN(Cc2ccc([C@H]3COc4cccnc4O3)cc2)C1 [Example 147, (3S)-1-{4-[(3S)-2,3-dihydro[1,4]dioxino[2,3-b]pyridin-3-yl]benzyl}pyrrolidin-3-ol]
Second: O=C(O)C1CCN(Cc2ccc([C@H]3COc4cccnc4O3)cc2)CC1 [Example 189, 1-{4-[(3S)-2,3-dihydro[1,4]dioxino[2,3-b]pyridin-3-yl]benzyl}piperidine-4-carboxylic acid]
The IC50 of the first is 2.2-fold higher: 350 pM for the first, 160 pM for the second. The second is the more potent here.

Compared with O=C(O)[C@@H]1CC[C@H](NCc2ccc([C@H]3COc4ccccc4O3)cc2)C1 [Example 57, (1R,3S)-3-({4-[(2S)-2,3-dihydro-1,4-benzodioxin-2-yl]benzyl}amino)cyclopentane-carboxylic acid], O[C@H]1CC[C@H](NCc2ccc([C@H]3COc4ccccc4O3)cc2)CC1 [Example 76, trans-4-({4-[(2S)-2,3-dihydro-1,4-benzodioxin-2-yl]benzyl}amino)cyclohexanol] is 7.2-fold lower in IC50: 13700 pM for the first, 1900 pM for the second. The second is the more potent here.

Compared with CC[C@@H](C)NCc1ccc(C2COc3ccccc3O2)cc1 (mixture of isomers) [Example 24, (2R)-N-[4-(2,3-dihydro-1,4-benzodioxin-2-yl)benzyl]butan-2-amine], CCCNCc1ccc([C@H]2COc3ccccc3O2)cc1 [Example 73, N-{4-[(2S)-2,3-dihydro-1,4-benzodioxin-2-yl]benzyl}propan-1-amine] is 1.6-fold lower in IC50: 5900 pM for the first, 3650 pM for the second.

Going from NCc1ccc(C2COc3cccnc3O2)cc1 (stereo not shown) [Example 210, 4-(2,3-Dihydro-[1,4]dioxino[2,3-b]pyridin-3-yl)-benzylamine] to c1cnc2c(c1)OC[C@H](c1ccc(CN3CCCOCC3)cc1)O2 [Example 150, (3S)-3-[4-(1,4-oxazepan-4-ylmethyl)phenyl]-2,3-dihydro[1,4]dioxino[2,3-b]pyridine], the IC50 falls from 19000 pM to 210 pM (90-fold).

Going from OC1CCN(Cc2ccc([C@@H]3COc4ccccc4O3)cc2)CC1 (single isomer, unassigned) [Example 193] to NC1CCN(Cc2ccc([C@H]3COc4ccccc4O3)cc2)CC1 [Example 217, 1-[(S)-4-(2,3-Dihydro-benzo[1,4]dioxin-2-yl)-benzyl]-piperidin-4-ylamine], the IC50 falls from 5350 pM to 2280 pM (2.3-fold).

First: OC(C1CCN(Cc2ccc([C@H]3COc4ccccc4O3)cc2)CC1)C(F)(F)F (stereo partly drawn) [Example 21, 1-(1-{4-[(2S)-2,3-dihydro-1,4-benzodioxin-2-yl]benzyl}piperidin-4-yl)-2,2,2-trifluoroethanol]
Second: CNC(=O)C1CCN(Cc2ccc([C@H]3COc4ccccc4O3)cc2)CC1 [Example 179, 1-{4-[(2S)-2,3-dihydro-1,4-benzodioxin-2-yl]benzyl}-N-methylpiperidine-4-carboxamide]
The IC50 of the first is 28-fold higher: 4430 pM for the first, 160 pM for the second. The second is the more potent here.

CS(=O)(=O)N1CCCC12CCN(Cc1ccc([C@H]3COc4ccccc4O3)cc1)C2 (stereo partly drawn) [Example 122, 7-{4-[(2S)-2,3-dihydro-1,4-benzodioxin-2-yl]benzyl}-1-(methylsulfonyl)-1,7-diazaspiro[4.4]nonane] and CC1(C(=O)O)CCN(Cc2ccc([C@H]3COc4ccccc4O3)cc2)CC1 [Example 211, 1-[(S)-4-(2,3-Dihydro-benzo[1,4]dioxin-2-yl)-benzyl]-4-methyl-piperidine-4-carboxylic acid] are within 1.5-fold of each other in IC50: 910 pM for the first, 690 pM for the second.

O=C(NC1CCN(Cc2ccc([C@H]3COc4cccnc4O3)cc2)CC1)C1(O)CC1 [Example 223, N-(1-{4-[(3S)-2,3-dihydro[1,4]dioxino[2,3-b]pyridin-3-yl]benzyl}piperidin-4-yl)-1-hydroxycyclopropanecarboxamide] and O=C(CO)NC1CCN(Cc2ccc([C@H]3COc4cccnc4O3)cc2)CC1 [Example 222, N-(1-{4-[(3S)-2,3-dihydro[1,4]dioxino[2,3-b]pyridin-3-yl]benzyl}piperidin-4-yl)-2-hydroxyacetamide] are within 1.5-fold of each other in IC50: 160 pM for the first, 140 pM for the second.

Compared with O=C(O)c1cccc(CN2CCN(Cc3ccc([C@H]4COc5ccccc5O4)cc3)CC2)c1 [Example 239, 3-{4-[(S)-4-(2,3-Dihydro-benzo[1,4]dioxin-2-yl)-benzyl]-piperazin-1-ylmethyl}-benzoic acid], CC(=O)N1CCCN(Cc2ccc(C3COc4ccccc4O3)cc2)CC1 (racemic) [Example 31, 1-{4-[4-(2,3-dihydro-1,4-benzodioxin-2-yl)benzyl]-1,4-diazepan-1-yl}ethanone] is 10-fold higher in IC50: 150 pM for the first, 1540 pM for the second.

First: CC1CCCN1Cc1ccc([C@H]2COc3ccccc3O2)cc1 (stereo partly drawn) [Example 77, 1-{4-[(2S)-2,3-dihydro-1,4-benzodioxin-2-yl]benzyl}-2-methylpyrrolidine]
Second: CC1COCCN1Cc1ccc([C@H]2COc3ccccc3O2)cc1 (stereo partly drawn) [Example 107, 4-{4-[(2S)-2,3-dihydro-1,4-benzodioxin-2-yl]benzyl}-3-methylmorpholine]
The IC50 of the first is 7.5-fold lower: 180 pM for the first, 1350 pM for the second.

Compared with O=S1(=O)CCN(Cc2ccc(C3COc4cccnc4O3)cc2)CC1 (racemic) [Example 17, 3-{4-[(1,1-dioxidothiomorpholin-4-yl)methyl]phenyl}-2,3-dihydro[1,4]dioxin[2,3-b]pyridine], O=S1(=O)CCN(Cc2ccc(C3COc4ccccc4O3)cc2)CC1 (racemic) [Example 7, 4-[4-(2,3-dihydro-1,4-benzodioxin-2-yl)benzyl]thiomorpholine 1,1-dioxide] is 3.6-fold higher in IC50: 770 pM for the first, 2790 pM for the second. The first is the more potent here.

CN1CCCN(Cc2ccc([C@H]3COc4cccnc4O3)cc2)CC1 [Example 143, (3S)-3-{4-[(4-methyl-1,4-diazepan-1-yl)methyl]phenyl}-2,3-dihydro[1,4]dioxino[2,3-b]pyridine] and OCCCC1CCN(Cc2ccc([C@H]3COc4cccnc4O3)cc2)CC1 [Example 149, 3-(1-{4-[(3S)-2,3-dihydro[1,4]dioxino[2,3-b]pyridin-3-yl]benzyl}piperidin-4-yl)propan-1-ol] are within 1.5-fold of each other in IC50: 300 pM for the first, 240 pM for the second.

Compared with CC(=O)NC1CCN(Cc2ccc([C@H]3COc4ccccc4O3)cc2)C1 (stereo partly drawn) [Example 82, N-(1-{4-[(2S)-2,3-dihydro-1,4-benzodioxin-2-yl]benzyl}pyrrolidin-3-yl)acetamide], C[C@H]1CN(Cc2ccc([C@H]3COc4ccccc4O3)cc2)CC[C@H]1C(=O)O [Example 212] is 2.5-fold higher in IC50: 200 pM for the first, 490 pM for the second. The first is the more potent here.

Going from O=C(O)C1(NCc2ccc([C@H]3COc4ccccc4O3)cc2)CCCC1 [Example 59, 1-({4-[(2S)-2,3-dihydro-1,4-benzodioxin-2-yl]benzyl}amino)cyclopentane-carboxylic acid] to O=C(O)C[C@H]1CCCN(Cc2ccc([C@H]3COc4ccccc4O3)cc2)C1 [Example 182, [(3R)-1-{4-[(2S)-2,3-dihydro-1,4-benzodioxin-2-yl]benzyl}piperidin-3-yl]acetic acid], the IC50 falls from 89200 pM to 290 pM (310-fold). The second is the more potent here.

First: c1ccc2c(c1)OCC(c1ccc(CN3CCCOCC3)cc1)O2 (racemic) [Example 32, 4-[4-(2,3-dihydro-1,4-benzodioxin-2-yl)benzyl]-1,4-oxazepan]
Second: O=C(C1CCN(Cc2ccc([C@H]3COc4ccccc4O3)cc2)CC1)N1CCOCC1 [Example 180, (1-{4-[(2S)-2,3-dihydro-1,4-benzodioxin-2-yl]benzyl}piperidin-4-yl)(morpholin-4-yl)methanone]
The IC50 of the first is 15-fold higher: 1800 pM for the first, 120 pM for the second. The second is the more potent here.

Compared with CC(=O)N1CCC(NCc2ccc([C@H]3COc4cccnc4O3)cc2)CC1 [Example 153, 1-[4-({4-[(3S)-2,3-dihydro[1,4]dioxino[2,3-b]pyridin-3-yl]benzyl}amino)piperidin-1-yl]ethanone], CS(=O)(=O)N1CCC(NCc2ccc([C@H]3COc4cccnc4O3)cc2)CC1 [Example 167, N-{4-[(3S)-2,3-dihydro[1,4]dioxino[2,3-b]pyridin-3-yl]benzyl}-1-(methylsulfonyl)piperidin-4-amine] is 3-fold lower in IC50: 820 pM for the first, 270 pM for the second.

Going from O=C1NCCC12CCN(Cc1ccc(C3COc4ccccc4O3)cc1)CC2 (racemic) [Example 4, 8-[4-(2,3-dihydro-1,4-benzodioxin-2-yl)benzyl]-2,8-diazaspiro[4.5]decan-1-one] to CN(C)C(=O)C1CCN(Cc2ccc([C@H]3COc4ccccc4O3)cc2)CC1 [Example 8, 1-{4-[(2S)-2,3-dihydro-1,4-benzodioxin-2-yl]benzyl}-N,N-dimethylpiperidine-4-carboxamide], the IC50 falls from 740 pM to 320 pM (2.3-fold).

First: O=C(C1CCN(Cc2ccc([C@H]3COc4cccnc4O3)cc2)CC1)N1CCOCC1 [Example 162, (1-{4-[(3S)-2,3-dihydro[1,4]dioxino[2,3-b]pyridin-3-yl]benzyl}piperidin-4-yl)(morpholin-4-yl)methanone]
Second: CN(C)C(=O)CC1CCN(Cc2ccc(C3COc4ccccc4O3)cc2)CC1 (racemic) [Example 38, 2-{1-[4-(2,3-dihydro-1,4-benzodioxin-2-yl)benzyl]piperidin-4-yl}-N,N-dimethylacetamide]
The IC50 of the first is 8.1-fold lower: 140 pM for the first, 1140 pM for the second.
